Laboratory results as given in PubChem BioAssay AID248 (DTP/NCI, 2004).
Where “and” joins values, the source holds several entries; their conditions need not be identical. Equal values may be shown once. Toxic doses and inconclusive results are not listed. Cut-off read from the data, not from the text of the source: active = T/C of 150% or more; inactive = T/C below 125%.

Tested on: L1210 leukemia ip in BDF1 mice, survival T/C
Test: NCI In Vivo Anticancer Drug Screen. Data for tumor model L1210 Leukemia (intraperitoneal) in B6D2F1 (BDF1) mice
Settings: endpoint: mean survival time, higher = longer survival
Method in brief: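 Ratio derived from survival: compound-dosed mice over vehicle-dosed mice, all bearing a transplantable tumor.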

[1] = dose: 100.0 mg/kg/injection, schedule: Q04DX003 (ip), vehicle: Klucel (hydroxypropylcellulose) (HPC)
[2] = dose: 200.0 mg/kg/injection, schedule: Q04DX003 (ip), vehicle: Klucel (hydroxypropylcellulose) (HPC)
[3] = dose: 400.0 mg/kg/injection, schedule: Q04DX003 (ip), vehicle: Klucel (hydroxypropylcellulose) (HPC)
[4] = dose: 50.0 mg/kg/injection, schedule: Q01DX009 (ip), vehicle: saline
[5] = dose: 100.0 mg/kg/injection, schedule: Q01DX009 (ip), vehicle: saline
[6] = dose: 100.0 mg/kg/injection, schedule: Q01DX001 (ip), vehicle: Klucel (hydroxypropylcellulose) (HPC)
[7] = dose: 200.0 mg/kg/injection, schedule: Q01DX001 (ip), vehicle: Klucel (hydroxypropylcellulose) (HPC)
[8] = dose: 400.0 mg/kg/injection, schedule: Q01DX001 (ip), vehicle: Klucel (hydroxypropylcellulose) (HPC)
[9] = dose: 100.0 mg/kg/injection, schedule: Q04DX003 (ip), vehicle: saline with Tween-80
[10] = dose: 200.0 mg/kg/injection, schedule: Q04DX003 (ip), vehicle: saline with Tween-80
[11] = dose: 400.0 mg/kg/injection, schedule: Q04DX003 (ip), vehicle: saline with Tween-80

Measured: T/C

O=c1oc(-c2ccccc2)ccc1-c1ccccc1
inactive: [1] 98 % of control | [2] 100 % of control | [3] 96 % of control

CCOC(=O)CNc1cc(N)ncn1
inactive: [4] 105 % of control | [5] 112 % of control

CCO/C=C1/C(=O)N(C)c2c1c(=O)n(C)c(=O)n2C
inactive: dose: 100.0 mg/kg/injection, schedule: Q04DX002 (ip), vehicle: Klucel (hydroxypropylcellulose) (HPC) 106 % of control | dose: 200.0 mg/kg/injection, schedule: Q04DX002 (ip), vehicle: Klucel (hydroxypropylcellulose) (HPC) 109 % of control

O=c1[nH]c2sccc2c(=O)n1O
inactive: [6] 106 % of control | [7] 97 % of control | [8] 97 % of control

Cn1c(=O)n(O)c(=O)c2ccccc21
inactive: dose: 50.0 mg/kg/injection, schedule: Q01DX001 (ip), vehicle: saline with Tween-80 96 % of control | dose: 100.0 mg/kg/injection, schedule: Q01DX001 (ip), vehicle: saline with Tween-80 109 % of control | dose: 200.0 mg/kg/injection, schedule: Q01DX001 (ip), vehicle: saline with Tween-80 91 % of control

COC1OC(CO)C(O)C(O)C1O (stereo not drawn)
inactive: dose: 44.0 mg/kg/injection, schedule: Q01DX001 (ip), vehicle: saline 102 % of control and 105 % of control | dose: 50.0 mg/kg/injection, schedule: Q01DX001 (ip), vehicle: saline 102 % of control | [4] 90 % of control | dose: 66.0 mg/kg/injection, schedule: Q01DX001 (ip), vehicle: saline 96 % of control and 100 % of control | dose: 100.0 mg/kg/injection, schedule: Q01DX001 (ip), vehicle: saline 100 % of control and 107 % of control | [5] 109 % of control | dose: 150.0 mg/kg/injection, schedule: Q01DX001 (ip), vehicle: saline 105 % of control and 107 % of control | dose: 200.0 mg/kg/injection, schedule: Q01DX001 (ip), vehicle: saline 100 % of control | dose: 200.0 mg/kg/injection, schedule: Q01DX009 (ip), vehicle: saline 93 % of control | dose: 400.0 mg/kg/injection, schedule: Q01DX001 (ip), vehicle: saline 111 % of control

C/C=C/CC/C(=N\Nc1ccc([N+](=O)[O-])cc1[N+](=O)[O-])c1ccccc1
inactive: [6] 96 % of control | [7] 96 % of control | [8] 100 % of control

CC(C)(CO)Nc1ccccc1
inactive: [9] 114 % of control | [10] 90 % of control | [11] 97 % of control

Cc1cc(OS(C)(=O)=O)ccc1OS(C)(=O)=O
inactive: dose: 100.0 mg/kg/injection, schedule: Q01DX009 (ip), vehicle: saline with Tween-80 94 % of control | [9] 98 % of control | dose: 200.0 mg/kg/injection, schedule: Q01DX009 (ip), vehicle: saline with Tween-80 94 % of control | [10] 94 % of control | dose: 400.0 mg/kg/injection, schedule: Q01DX009 (ip), vehicle: saline with Tween-80 92 % of control | [11] 98 % of control

CC(=O)CCCC1C(=O)N(c2ccccc2)N(c2ccccc2)C1=O
inactive: [1] 102 % of control | [2] 101 % of control | [3] 96 % of control
